Data as given in patent US12459951B2, “Compounds that interact with RAS superfamily proteins for treatment of cancers, inflammatory diseases, rasopathies, and fibrotic disease” (SHY Therapeutics, LLC, priority 2022, dated 2025).

Key:
MAPK p38 phosphorylation = assay: MAPK p38 Activation Assay (western blot), Panc-1; type: cell-based, human; settings: at 10 μM, Panc-1 pancreatic cancer cell line; starred symbols = activation
In short: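 Panc-1 cells (KRas G12D) were treated with compound for 6 h at 37 °C, at 10 μM or as serial dilutions for IC50, with 0.3% DMSO. Method 1 used overnight serum-starved cells (0.5% FBS) stimulated with 1.5 ng/ml EGF for 15 min; Method 2 used unstimulated cells in 10% FBS. Phospho-p38 (Thr180/Tyr182) was detected by western blot.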

IL6 = assay: IL-6 Quantification Assay (ELISA), LPS-stimulated RAW 264.7; type: cell-based; parameters: inhibition: dose or concentration left out as unconfirmed; settings: Mus musculus, RAW264.7; read-out: IL-6: % inh.
KRas G12D mutant = assay: Ras GTP Binding Domain Inhibition Assay (Ras Superfamily Assay); settings: for KRas G12D mutant + SOS: % inh.: with SOS; for KRas G12D mutant: % inh.: without SOS
In short: (§1)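 Ni-plate capture of His-tagged protein (10-30 μg/mL, o/n 4° C); cpd 20 μM or dilution series, 1% DMSO, 3 h RT ± Sos 556-1049 last h; 100 nM Cy-labelled GTP 45 min RT; 3× wash; fluorescence read.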

KRas wild type = assay: as above; settings: for KRas wild type + SOS: % inh.: with SOS; for KRas wild type: % inh.: without SOS
In short: as §1

Rac-1 = molecular target: T1, Rac-1 (Homo sapiens, UniProt P63000); assay: as above; settings: read-out: Rac-1: % inh.
T1 construct: made in house
In short: as §1

Compound	% inh of MAPK p38 in Panc-1 (MAPK p38 phosphorylation)	inhibition (IL6) [%]	KRas G12D mutant + SOS: % inh. (KRas G12D mutant; at 20 μM)	KRas G12D mutant: % inh. (KRas G12D mutant; at 20 μM)	KRas wild type + SOS: % inh. (KRas wild type; at 20 μM)	KRas wild type: % inh. (KRas wild type; at 20 μM)	inhibition at 20 µM (Rac-1) [%]	KRas G12D mutant + SOS: % inh. (KRas G12D mutant; 20 μM compound)	KRas G12D mutant: % inh. (KRas G12D mutant; 20 μM compound)	KRas wild type + SOS: % inh. (KRas wild type; 20 μM compound)	KRas wild type: % inh. (KRas wild type; 20 μM compound)
CO[C@H]1C[C@@H](Nc2nc(-c3nccn3C)nn3cc(-c4ccncc4)c(-c4ccccc4)c23)C1 [Compound 198, N-((1s,3s)-3-Methoxycyclobutyl)-2-(1-methyl-1H-imidazol-2-yl)-5-phenyl-6-(pyridin-4-yl)pyrrolo[2,1-f][1,2,4]triazin-4-amine]	E (E = 1-30% inhibition)	25 to 49	B (B = 26-49% inhibition)	B (B = 26-49% inhibition)	B (B = 26-49% inhibition)	A (A = 1-25% inhibition)	26 to 49	–	–	–	–
CO[C@H]1C[C@H](Nc2nc(-c3nccn3C)nn3cc(-c4cccc(CN)c4)c(-c4ccccc4)c23)C1 [Compound 204, 6-(3-(aminomethyl)phenyl)-N-((1r,3r)-3-methoxycyclobutyl)-2-(1-methyl-1H-imidazol-2-yl)-5-phenylpyrrolo[2,1-f][1,2,4]triazin-4-amine]	E (E = 1-30% inhibition)	75 to 100	A (A = 1-25% inhibition)	A (A = 1-25% inhibition)	A (A = 1-25% inhibition)	A (A = 1-25% inhibition)	1 to 25	–	–	–	–
CO[C@H]1C[C@H](Nc2nc(-c3nccn3C)nn3cc(-c4ccc(OCCN)cc4)c(-c4ccccc4)c23)C1.Cl [Compound 208, 6-(4-(2-Aminoethoxy)phenyl)-N-((1r,3r)-3-methoxycyclobutyl)-2-(1-methyl-1H-imidazol-2-yl)-5-phenylpyrrolo[2,1-f][1,2,4]triazin-4-amine hydrochloride salt]	G (G = 75-99% inhibition)	75 to 100	C (C = 50-75% inhibition)	B (B = 26-49% inhibition)	C (C = 50-75% inhibition)	B (B = 26-49% inhibition)	26 to 49	–	–	–	–
CO[C@H]1CC[C@H](Nc2nc(-c3nccn3C)nn3cc(-c4cccnc4)c(-c4ccccc4)c23)C1 (racemic) [Compound 194, rac N-((1S,3S)-3-Methoxycyclopentyl)-2-(1-methyl-1H-imidazol-2-yl)-5-phenyl-6-(pyridin-3-yl)pyrrolo[2,1-f][1,2,4]triazin-4-amine]	E (E = 1-30% inhibition)	75 to 100	A (A = 1-25% inhibition)	A (A = 1-25% inhibition)	0 (0 = 0% inhibition)	A (A = 1-25% inhibition)	1 to 25	–	–	–	–
COc1ccnc(Nc2nc(-c3nccn3C)nn3cc(-c4c(F)cccc4OC)c(-c4ccccc4)c23)c1 [Compound 217, 6-(2-Fluoro-6-methoxyphenyl)-N-(4-methoxypyridin-2-yl)-2-(1-methyl-1H-imidazol-2-yl)-5-phenylpyrrolo[2,1-f][1,2,4]triazin-4-amine]	F (F = 31-74% inhibition)	75 to 100	B (B = 26-49% inhibition)	C (C = 50-75% inhibition)	B (B = 26-49% inhibition)	C (C = 50-75% inhibition)	50 to 75	–	–	–	–
COc1cccc(-c2cn3nc(-c4nccn4C)nc(O)c3c2C)c1Cl [Compound 15, 6-(2-Chloro-3-methoxyphenyl)-5-methyl-2-(1-methyl-1H-imidazol-2-yl)pyrrolo[2,1-f][1,2,4]triazin-4-ol]	H* (H* ≥ 100% activation)	50 to 74	–	–	–	–	0	0 (0 = 0% inhibition)	A (A = 1-25% inhibition)	A (A = 1-25% inhibition)	A (A = 1-25% inhibition)
CO[C@H]1CC[C@@H](Nc2nc(-c3nccn3C)nn3cc(-c4cccnc4)c(-c4ccccc4)c23)C1 (racemic) [Compound 193, rac N-((1R,3S)-3-Methoxycyclopentyl)-2-(1-methyl-1H-imidazol-2-yl)-5-phenyl-6-(pyridin-3-yl)pyrrolo[2,1-f][1,2,4]triazin-4-amine]	E (E = 1-30% inhibition)	75 to 100	A (A = 1-25% inhibition)	A (A = 1-25% inhibition)	A (A = 1-25% inhibition)	A (A = 1-25% inhibition)	1 to 25	–	–	–	–
COCCNc1nc(-c2nccn2C)nn2cc(-c3cccc(OC)c3Cl)c(C)c12 [Compound 16, 6-(2-Chloro-3-methoxyphenyl)-N-(2-methoxyethyl)-5-methyl-2-(1-methyl-1H-imidazol-2-yl)pyrrolo[2,1-f][1,2,4]triazin-4-amine]	H* (H* ≥ 100% activation)	50 to 74	–	–	–	–	0	0 (0 = 0% inhibition)	A (A = 1-25% inhibition)	A (A = 1-25% inhibition)	0 (0 = 0% inhibition)
CO[C@H]1CC[C@H](Nc2nc(-c3nccn3C)nn3cc(-c4ccncc4)c(-c4ccccc4)c23)C1 (racemic) [Compound 201, rac N-((1S,3S)-3-Methoxycyclopentyl)-2-(1-methyl-1H-imidazol-2-yl)-5-phenyl-6-(pyridin-4-yl)pyrrolo[2,1-f][1,2,4]triazin-4-amine]	E (E = 1-30% inhibition)	75 to 100	B (B = 26-49% inhibition)	B (B = 26-49% inhibition)	B (B = 26-49% inhibition)	A (A = 1-25% inhibition)	26 to 49	–	–	–	–
COC[C@@H]1CC[C@@H]1CNc1nc(-c2ccccn2)nn2cc(-c3ccn(C(C)C)n3)c(C)c12 (racemic) [Compound 11, rac 6-(1-Isopropyl-1H-pyrazol-3-yl)-N-(((1S,2R)-2-(methoxymethyl)cyclobutyl)methyl)-5-methyl-2-(pyridin-2-yl)pyrrolo[2,1-f][1,2,4]triazin-4-amine]	G* (G* = 75-99% activation)	0	–	–	–	–	0	0 (0 = 0% inhibition)	A (A = 1-25% inhibition)	0 (0 = 0% inhibition)	0 (0 = 0% inhibition)
COc1ccnc(Oc2nc(-c3nccn3C)nn3cc(-c4ccn(C)n4)c(C)c23)c1 [Compound 220, 4-((4-Methoxypyridin-2-yl)oxy)-5-methyl-2-(1-methyl-1H-imidazol-2-yl)-6-(1-methyl-1H-pyrazol-3-yl)pyrrolo[2,1-f][1,2,4]triazine]	F (F = 31-74% inhibition)	25 to 49	A (A = 1-25% inhibition)	B (B = 26-49% inhibition)	A (A = 1-25% inhibition)	B (B = 26-49% inhibition)	26 to 49	–	–	–	–
COc1ccnc(Nc2nc(-c3nccn3C)nn3cc(-c4ccn(CCNC(=O)CCCC[C@H]5SC[C@H]6NC(=O)N[C@H]65)n4)c(C)c23)c1 [Compound 215, N-(2-(3-(4-((4-methoxypyridin-2-yl)amino)-5-methyl-2-(1-methyl-1H-imidazol-2-yl)pyrrolo[2,1-f][1,2,4]triazin-6-yl)-1H-pyrazol-1-yl)ethyl)-5-((3aR,4R,6aS)-2-oxohexahydro-1H-thieno[3,4-d]imidazol-4-yl)pentanamide]	F (F = 31-74% inhibition)	1 to 24	D (D = 76-100% inhibition)	D (D = 76-100% inhibition)	D (D = 76-100% inhibition)	D (D = 76-100% inhibition)	76 to 100	–	–	–	–
